The record followed here is ChEMBL document CHEMBL3046325, “Synthesis, computational studies, and preliminary pharmacological evaluation of new arylpiperazines as potential antipsychotics” (Med Chem Res, 2012).

The test system of data set [1] is Mus musculus. Kind of data set: Antipsychotic activity in ip dosed Mus musculus Swiss albino (mouse) assessed as inhibition of […] -induced climbing behavior pretreated 10 min prior to 2.5 mg/kg, ip apomorphine administration measured at 5 min intervals for up to 20 min starting 10 min after apomorphine challenge. The note with it: route intraperitoneal. The class given is functional.

Data set [2] concerns Mus musculus. Nature of the data set: Induction of catalepsy in ip dosed Mus musculus albino (mouse) measured at 30 min interval until 120 min and at the end of 240 min. Type of data set: organism-based. Particulars: in vivo.
Data set [3] relates to Mus musculus. Kind of data set: Antipsychotic activity in ip dosed Mus musculus Swiss albino (mouse) assessed as inhibiton of 5-HTP-induced head twitches pretreated 30 min before 50 mg/kg, sc 5-HTP administration measured at 10 min intervals for 30 min, starting 20 min after 5-HTP challenge. The class given is functional.

Where only a bound is given, the exact number is not on record here.

The ED50 is the dose at which the effect has come halfway, by size or by number of responders.

Consider `NC(=O)c1ccccc1OCCN1CCN(c2ccccc2)CC1`, for which the ED50 stood at 35.3 mg/kg in data set [1], 50 mg/kg in data set [2] and 30 mg/kg in data set [3].

`Cc1cccc(N2CCN(CCOc3ccccc3C(N)=O)CC2)c1`: the ED50 is 40 mg/kg in data set [1], 70 mg/kg in data set [2] and more than 20 mg/kg in data set [3].

On to `COc1ccccc1N1CCN(CCOc2ccccc2C(N)=O)CC1`, for which the results for the ED50 in data set [1], in data set [2] and in data set [3] were 40 mg/kg, 100 mg/kg and 10 mg/kg, respectively.

For the compound `Cc1ccc(N2CCN(CCOc3ccccc3C(N)=O)CC2)cc1`, the values for the ED50 in data set [1], in data set [2] and in data set [3] were 40.5 mg/kg, more than 80 mg/kg and 27.2 mg/kg, respectively.

With `COc1cccc(N2CCN(CCOc3ccccc3C(N)=O)CC2)c1`, the ED50 in data set [1] is more than 40 mg/kg; in data set [2], more than 80 mg/kg; in data set [3], 25 mg/kg.

For `COc1ccccc1N1CCN(CCCCOc2ccccc2C(N)=O)CC1`, the ED50 was 50.8 mg/kg in data set [1], more than 70 mg/kg in data set [2] and more than 40 mg/kg in data set [3].

As for `NC(=O)c1ccccc1OCCCN1CCN(c2ccccc2)CC1`, the ED50 in data set [1] was more than 40 mg/kg; in data set [2] it was more than 60 mg/kg; in data set [3], more than 20 mg/kg.

Consider `CN1CCN(C2=Nc3cc(Cl)ccc3Nc3ccccc32)CC1` [CLOZAPINE], for which the ED50 in data set [1] was 8.7 mg/kg; in data set [3], 2.8 mg/kg.

In the case of `COc1ccccc1N1CCN(CCCOc2ccccc2C(N)=O)CC1`, the ED50 was 50 mg/kg in data set [1], more than 60 mg/kg in data set [2] and 18.2 mg/kg in data set [3].

Take `NC(=O)c1ccccc1OCCCCN1CCN(c2ccccc2)CC1`: the ED50 in data set [1] was more than 40 mg/kg; in data set [2] it was more than 60 mg/kg; in data set [3], more than 40 mg/kg.

`NC(=O)c1ccccc1OCCN1CCN(c2ccccc2Cl)CC1`: the figures for the ED50 in data set [1], in data set [2] and in data set [3] were more than 40 mg/kg, more than 80 mg/kg and more than 20 mg/kg, respectively.
